In ChEMBL document CHEMBL1201862, “PubChem BioAssay data set” (2004):
Activity calls are given as the source filed them.

Columns and labels:
[1] = HeLa cell cytotoxicity, dose response, cytotoxicity control for MgcRacGAP inhibitor project (AID 624300); type: functional
[2] = LGR2 antagonists, dose response, cell-based, HEK293, CRE-luciferase reporter, cherry pick, set 2 (AID 743343); type: functional;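 also: transfected cells were stimulated with diluted bursicon conditioned medium after compound addition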
[3] = MC4R antagonists, dose response, counter-screen for LGR2 antagonist project, cell-based, plate reader, cherry pick (AID 743444); type: functional;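 also: transfected HEK 293 cells stimulated with alpha-MSH peptide; potency of inhibitors of the alpha-MSH evoked signal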
[4] = cells; type: functional
[5] = target: T1, Ubiquitin-conjugating enzyme E2 N (Homo sapiens, UniProt P61088); type: functional;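 also: Dose-response confirmation in a TR-FRET assay detecting UBC13-driven polyubiquitin chain formation, inhibition measured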
T1 sequence (P61088 whole entry): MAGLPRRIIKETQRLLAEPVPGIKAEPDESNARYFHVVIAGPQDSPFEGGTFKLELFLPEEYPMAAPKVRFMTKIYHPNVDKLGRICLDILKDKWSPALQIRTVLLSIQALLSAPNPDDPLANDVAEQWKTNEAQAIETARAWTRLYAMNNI

[6] = Vero E6 cell cytotoxicity, dose response, cytotoxicity control for non-replicating M. tuberculosis project, secondary assay (AID 492998); type: functional, VeroE6; conditions: Vero C1008
[7] = HEK293 cell cytotoxicity, dose response, cytotoxicity control, plate reader, cherry-picked samples (AID 743446); type: functional, cell-based
[8] = HepG2 cell cytotoxicity, dose response, cytotoxicity control for non-replicating M. tuberculosis project (AID 489018); type: functional; conditions: Mycobacterium tuberculosis
[9] = A549 cell cytotoxicity, dose response, cytotoxicity control, plate reader, cherry-pick, antagonist series (AID 743412); type: functional, cell-based
[10] = THP-1 cell cytotoxicity, dose response, cytotoxicity control for non-replicating M. tuberculosis project (AID 489025); type: functional
[11] = target: T2, Microphthalmia-associated transcription factor (Homo sapiens, UniProt O75030); assay: TRPM1 promoter luciferase signal decrease, dose response, MITF inhibitor project, cell-based, SK-MEL-5, cherry-picked, set 3 (AID 493073); type: functional
T2 sequence (O75030 whole entry): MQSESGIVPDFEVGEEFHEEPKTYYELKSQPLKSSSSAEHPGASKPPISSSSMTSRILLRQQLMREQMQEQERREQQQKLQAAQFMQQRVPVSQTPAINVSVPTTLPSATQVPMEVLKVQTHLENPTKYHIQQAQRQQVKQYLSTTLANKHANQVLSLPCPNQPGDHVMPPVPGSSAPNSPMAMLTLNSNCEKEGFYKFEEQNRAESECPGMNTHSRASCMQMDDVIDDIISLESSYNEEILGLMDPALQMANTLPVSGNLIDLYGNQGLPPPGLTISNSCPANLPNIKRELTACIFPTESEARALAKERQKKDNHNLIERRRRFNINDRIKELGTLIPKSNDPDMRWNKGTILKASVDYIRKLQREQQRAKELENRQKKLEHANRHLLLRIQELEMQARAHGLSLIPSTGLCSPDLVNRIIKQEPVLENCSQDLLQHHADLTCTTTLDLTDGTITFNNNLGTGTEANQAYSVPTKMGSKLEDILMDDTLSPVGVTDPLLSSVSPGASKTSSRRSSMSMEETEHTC

[12] = target: T3, Rac GTPase-activating protein 1 (Homo sapiens, UniProt Q9H0H5); assay: MgcRacGAP GTPase-activating activity inhibitors, confirmation, biochemical, ADP Hunter fluorescence, primary and confirmatory (AID 624330); type: functional
T3 sequence (Q9H0H5 whole entry): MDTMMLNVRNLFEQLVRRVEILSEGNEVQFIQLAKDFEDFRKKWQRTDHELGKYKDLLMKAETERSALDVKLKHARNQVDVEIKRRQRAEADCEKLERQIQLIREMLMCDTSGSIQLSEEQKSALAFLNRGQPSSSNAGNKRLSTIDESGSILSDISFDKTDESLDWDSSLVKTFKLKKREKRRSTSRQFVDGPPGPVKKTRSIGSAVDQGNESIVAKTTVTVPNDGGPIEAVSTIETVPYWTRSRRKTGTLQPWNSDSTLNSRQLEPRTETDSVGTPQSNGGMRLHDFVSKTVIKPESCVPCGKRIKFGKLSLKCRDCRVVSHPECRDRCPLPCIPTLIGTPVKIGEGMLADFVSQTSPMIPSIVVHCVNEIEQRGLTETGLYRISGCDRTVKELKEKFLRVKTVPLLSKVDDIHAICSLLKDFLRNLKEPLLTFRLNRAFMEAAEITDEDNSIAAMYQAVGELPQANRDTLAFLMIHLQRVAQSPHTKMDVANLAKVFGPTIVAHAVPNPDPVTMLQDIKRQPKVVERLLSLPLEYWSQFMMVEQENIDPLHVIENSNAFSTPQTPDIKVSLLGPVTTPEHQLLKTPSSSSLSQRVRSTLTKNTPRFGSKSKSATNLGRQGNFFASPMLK

[13] = test system: A-375; assay: A375 melanoma cell viability reduction, dose response, counter-screen for MITF modulator project, cherry-pick samples, set 2 (AID 540335); type: functional, cell-based; conditions: Homo sapiens
[14] = HepG2 cell cytotoxicity, dose response, cytotoxicity control, plate reader, cherry-pick, antagonist series (AID 743416); type: functional, cell-based
[15] = Late-stage assay provider results from the probe development effort to identify agonists of the Sphingosine 1-Phosphate Receptor 4 (S1P4): luminescence-based cell-based dose response assay to determine cytotoxicity of agonist compounds. [Related pubchem assays (depositor defined):AID1509, AID1523, AID1563, AID1686, AID1701, AID1801, AID463107, AID463225, AID504400]; type: functional
[16] = target: Sphingosine 1-phosphate receptor 2 (Homo sapiens, UniProt O95136); assay: (§1) Late-stage fluorescence-based dose-response cell-based assay to identify agonists of the Sphingosine 1-Phosphate Receptor 4 (S1P4): Sphingosine 1-Phosphate Receptor 2 (S1P2) counterscreen assay. [Related pubchem assays (depositor defined):AID1509, AID1523, AID1563, AID1686, AID1701, AID1801, AID463107, AID463225, AID504400]; type: functional
Sphingosine 1-phosphate receptor 2, sequence (O95136 whole entry): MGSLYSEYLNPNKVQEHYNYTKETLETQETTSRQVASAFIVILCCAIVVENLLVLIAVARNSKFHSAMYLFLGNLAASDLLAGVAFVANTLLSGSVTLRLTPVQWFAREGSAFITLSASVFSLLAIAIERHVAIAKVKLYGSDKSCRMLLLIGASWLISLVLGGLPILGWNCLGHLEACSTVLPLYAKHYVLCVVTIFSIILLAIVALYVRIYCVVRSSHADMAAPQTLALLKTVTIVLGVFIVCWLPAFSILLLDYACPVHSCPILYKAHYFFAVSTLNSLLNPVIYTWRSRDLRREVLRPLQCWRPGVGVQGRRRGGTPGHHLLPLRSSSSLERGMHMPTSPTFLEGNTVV

[17] = target: Sphingosine 1-phosphate receptor 4 (Homo sapiens, UniProt O95977); assay: Late-stage fluorescence dose response cell-based counterscreening assay for agonists of the Sphingosine 1-Phosphate Receptor 4 (S1P4): inhibition by S1P4-selective antagonist. [Related pubchem assays (depositor defined):AID1509, AID1523, AID1563, AID1686, AID1701, AID1801, AID463107, AID463118, AID463119, AID463122, AID463123, AID463129, AID504400]; type: functional
Sphingosine 1-phosphate receptor 4, sequence (O95977 whole entry): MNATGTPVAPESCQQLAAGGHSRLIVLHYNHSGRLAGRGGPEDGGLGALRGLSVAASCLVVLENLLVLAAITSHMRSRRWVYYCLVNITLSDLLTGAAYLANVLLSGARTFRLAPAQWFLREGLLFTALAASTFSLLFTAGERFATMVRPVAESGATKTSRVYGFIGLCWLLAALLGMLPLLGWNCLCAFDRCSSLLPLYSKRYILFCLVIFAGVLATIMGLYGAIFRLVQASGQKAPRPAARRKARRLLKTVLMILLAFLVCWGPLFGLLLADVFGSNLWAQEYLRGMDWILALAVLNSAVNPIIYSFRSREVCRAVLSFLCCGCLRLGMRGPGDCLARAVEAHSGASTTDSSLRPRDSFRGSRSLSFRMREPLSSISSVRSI

[18] = target: Sphingosine 1-phosphate receptor 3 (Homo sapiens, UniProt Q99500); assay: as §1, with “3 (S1P3)” for “2 (S1P2)”; type: functional
Sphingosine 1-phosphate receptor 3, sequence (Q99500 whole entry): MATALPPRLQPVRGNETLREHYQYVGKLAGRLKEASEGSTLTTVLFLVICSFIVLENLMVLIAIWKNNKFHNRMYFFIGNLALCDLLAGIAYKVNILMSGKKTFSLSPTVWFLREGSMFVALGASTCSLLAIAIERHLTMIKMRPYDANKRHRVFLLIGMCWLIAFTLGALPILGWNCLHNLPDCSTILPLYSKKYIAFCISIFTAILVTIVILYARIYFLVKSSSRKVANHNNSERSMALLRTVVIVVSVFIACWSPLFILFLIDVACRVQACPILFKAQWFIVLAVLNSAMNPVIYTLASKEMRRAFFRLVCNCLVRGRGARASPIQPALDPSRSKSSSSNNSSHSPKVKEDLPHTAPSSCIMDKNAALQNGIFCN

[19] = target: Sphingosine 1-phosphate receptor 1 (Homo sapiens, UniProt P21453); assay: as §1, with “1 (S1P1)” for “2 (S1P2)”; type: functional
Sphingosine 1-phosphate receptor 1, sequence (P21453 whole entry): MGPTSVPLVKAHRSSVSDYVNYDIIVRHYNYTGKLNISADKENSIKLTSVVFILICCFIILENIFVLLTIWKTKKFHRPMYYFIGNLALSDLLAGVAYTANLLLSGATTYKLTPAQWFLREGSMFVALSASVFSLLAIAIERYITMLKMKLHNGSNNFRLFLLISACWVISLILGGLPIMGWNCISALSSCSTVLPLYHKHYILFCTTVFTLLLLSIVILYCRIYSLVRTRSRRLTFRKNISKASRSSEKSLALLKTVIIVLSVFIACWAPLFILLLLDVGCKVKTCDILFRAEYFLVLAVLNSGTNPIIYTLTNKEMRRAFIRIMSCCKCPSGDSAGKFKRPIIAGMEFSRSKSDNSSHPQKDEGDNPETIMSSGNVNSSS

[20] = target: Sphingosine 1-phosphate receptor 5 (Homo sapiens, UniProt Q9H228); assay: as §1, with “5 (S1P5)” for “2 (S1P2)”; type: functional
Sphingosine 1-phosphate receptor 5, sequence (Q9H228 whole entry): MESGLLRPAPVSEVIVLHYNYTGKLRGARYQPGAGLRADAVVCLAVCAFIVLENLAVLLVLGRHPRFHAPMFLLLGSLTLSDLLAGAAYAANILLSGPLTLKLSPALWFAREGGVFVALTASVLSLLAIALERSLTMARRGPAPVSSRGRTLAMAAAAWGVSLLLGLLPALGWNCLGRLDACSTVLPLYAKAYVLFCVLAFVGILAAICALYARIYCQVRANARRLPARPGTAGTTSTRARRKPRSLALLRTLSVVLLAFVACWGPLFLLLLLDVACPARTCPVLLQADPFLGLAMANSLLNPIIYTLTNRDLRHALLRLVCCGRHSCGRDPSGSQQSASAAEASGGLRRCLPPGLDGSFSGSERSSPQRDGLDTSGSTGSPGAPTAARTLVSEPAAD

[21] = test system: Candida albicans; assay: reversal of fluconazole resistance in C. albicans, dose response, CaCi-2 strain, Alamar Blue, dry powder, set 3 (AID 488907); type: functional, organism-based

**Q.** What does the source list for `CC(C)(c1ccccc1)c1ccc(OCC(O)CNC2CCN(Cc3ccccc3)CC2)cc1` (stereo unspecified)?
**A.** CC50 [1]: 17.6 µM (active); AC50 [2]: 10.5 µM (active); AC50 [3]: 6.77 µM (active); IC50 [4]: 5.15 µM (active); IC50 [5]: > 20 µM (inactive); CC50 [6]: 5.72 µM (active); AC50 [7]: 8.12 µM (active); CC50 [8]: 6.65 µM (active); AC50 [9]: 6.42 µM (active); CC50 [10]: 6.44 µM (active); AC50 [11]: 7.94 µM (active); IC50 [12]: 50.6 µM (active); AC50 [13]: 18.1 µM (active); AC50 [14]: 4.23 µM (active)

**Q.** Which CC50 [15] does the source give for `Clc1ccc(OCCOc2ccc(Br)nc2Br)c(Cl)c1` here?
**A.** Its CC50 is > 20 µM (inactive).

**Q.** What about the EC50 [16] of the same compound?
**A.** Its EC50 is > 50 µM (inactive).

**Q.** What about the IC50 [17] of the same compound?
**A.** Its IC50 is 0.83 µM (active).

**Q.** What about the EC50 [18] of the same compound?
**A.** The EC50 was > 50 µM (inactive).

**Q.** And the EC50 [19]?
**A.** The EC50 was > 50 µM (inactive).

**Q.** What about the EC50 [20] of the same compound?
**A.** The EC50 was > 50 µM (inactive).

**Q.** With `N#Cc1cccnc1N1CCN(C(=O)c2ccc(Cl)cc2)CC1` as the compound, how does the AC50 [21] read?
**A.** Its AC50 is 0.611 µM (active).
